Results: ChEMBL document CHEMBL1909046, “DrugMatrix in vitro pharmacology data”

Key:
[1] = target: 5-hydroxytryptamine receptor 2B (Homo sapiens, UniProt P41595); assay type: cell membranes, CHO-K1, Membrane; further: in other assays of this panel Not Active means under 50% inhibition at 10 µM
[2] = target: Sigma non-opioid intracellular receptor 1 (Homo sapiens, UniProt Q99720); assay: DRUGMATRIX: Sigma1 radioligand binding (ligand: [3H] Haloperidol); assay type: cell membranes, Jurkat, Membrane; details: Not Active = under 50% inhibition at 10 µM
Sequence of Sigma non-opioid intracellular receptor 1 (Q99720 whole entry): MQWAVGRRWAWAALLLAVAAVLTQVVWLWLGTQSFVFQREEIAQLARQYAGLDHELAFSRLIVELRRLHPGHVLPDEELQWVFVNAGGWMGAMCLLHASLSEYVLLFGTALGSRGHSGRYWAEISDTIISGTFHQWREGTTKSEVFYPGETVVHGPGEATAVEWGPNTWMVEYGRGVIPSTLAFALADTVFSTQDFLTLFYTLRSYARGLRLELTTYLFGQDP

[3] = target: C-C chemokine receptor type 2 (Homo sapiens, UniProt P41597); assay type: cell membranes, CHO-K1, Membrane; details: cho-k1; further: in other assays of this panel Not Active means under 50% inhibition at 10 µM
Sequence of C-C chemokine receptor type 2 (P41597 whole entry): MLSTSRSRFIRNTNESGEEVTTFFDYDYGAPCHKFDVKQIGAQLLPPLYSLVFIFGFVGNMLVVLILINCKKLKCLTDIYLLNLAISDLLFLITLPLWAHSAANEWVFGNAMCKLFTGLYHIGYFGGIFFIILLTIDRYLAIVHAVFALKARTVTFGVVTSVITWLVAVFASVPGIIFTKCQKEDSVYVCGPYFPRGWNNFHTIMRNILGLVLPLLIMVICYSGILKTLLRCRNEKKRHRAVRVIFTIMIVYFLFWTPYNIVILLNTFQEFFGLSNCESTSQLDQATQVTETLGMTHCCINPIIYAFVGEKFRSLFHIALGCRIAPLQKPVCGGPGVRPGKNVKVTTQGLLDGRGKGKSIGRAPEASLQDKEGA

[4] = target: T1, 3-hydroxy-3-methylglutaryl-coenzyme A reductase (Homo sapiens, UniProt P04035); parameters: species or system Escherichia coli;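 further: enzyme inhibition assay of HMG-CoA reductase using radiolabeled [14C]HMG-CoA as substrate; in other assays of this panel Not Active means under 50% inhibition at 10 µM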
T1 sequence (P04035 whole entry): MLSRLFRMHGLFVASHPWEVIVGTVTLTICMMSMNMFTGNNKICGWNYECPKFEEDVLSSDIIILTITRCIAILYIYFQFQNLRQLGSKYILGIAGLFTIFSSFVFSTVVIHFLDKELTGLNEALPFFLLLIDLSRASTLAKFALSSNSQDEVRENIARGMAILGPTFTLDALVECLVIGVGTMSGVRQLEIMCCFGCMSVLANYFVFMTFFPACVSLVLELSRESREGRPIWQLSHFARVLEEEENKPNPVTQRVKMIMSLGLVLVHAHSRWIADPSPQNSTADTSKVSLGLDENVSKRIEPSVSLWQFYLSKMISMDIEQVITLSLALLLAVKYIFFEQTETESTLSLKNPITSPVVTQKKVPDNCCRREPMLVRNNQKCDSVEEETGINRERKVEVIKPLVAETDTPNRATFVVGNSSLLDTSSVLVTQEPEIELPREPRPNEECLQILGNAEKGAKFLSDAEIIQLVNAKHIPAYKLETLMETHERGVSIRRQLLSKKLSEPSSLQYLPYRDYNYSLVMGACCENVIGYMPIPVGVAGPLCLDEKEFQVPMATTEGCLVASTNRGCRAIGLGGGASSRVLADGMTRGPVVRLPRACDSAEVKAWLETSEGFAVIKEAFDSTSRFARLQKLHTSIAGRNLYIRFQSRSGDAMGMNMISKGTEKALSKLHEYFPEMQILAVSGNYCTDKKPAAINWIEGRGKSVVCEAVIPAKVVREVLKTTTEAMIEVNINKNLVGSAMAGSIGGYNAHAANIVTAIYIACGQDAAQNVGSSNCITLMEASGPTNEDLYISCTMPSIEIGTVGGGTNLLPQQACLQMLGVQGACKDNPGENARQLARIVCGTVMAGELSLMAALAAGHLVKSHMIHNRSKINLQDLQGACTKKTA

[5] = DRUGMATRIX: Imidazoline I2, Central radioligand binding (ligand: [3H] Idazoxan); assay type: cell membranes, Rattus norvegicus, Wistar, Cerebral cortex, Membrane; details: Not Active = under 50% inhibition at 10 µM
[6] = target: T2, Neuropeptide Y receptor type 2 (Homo sapiens, UniProt P49146); assay type: cell membranes, Membrane; details: kan-ts; further: in other assays of this panel Not Active means under 50% inhibition at 10 µM
T2 sequence (P49146 whole entry): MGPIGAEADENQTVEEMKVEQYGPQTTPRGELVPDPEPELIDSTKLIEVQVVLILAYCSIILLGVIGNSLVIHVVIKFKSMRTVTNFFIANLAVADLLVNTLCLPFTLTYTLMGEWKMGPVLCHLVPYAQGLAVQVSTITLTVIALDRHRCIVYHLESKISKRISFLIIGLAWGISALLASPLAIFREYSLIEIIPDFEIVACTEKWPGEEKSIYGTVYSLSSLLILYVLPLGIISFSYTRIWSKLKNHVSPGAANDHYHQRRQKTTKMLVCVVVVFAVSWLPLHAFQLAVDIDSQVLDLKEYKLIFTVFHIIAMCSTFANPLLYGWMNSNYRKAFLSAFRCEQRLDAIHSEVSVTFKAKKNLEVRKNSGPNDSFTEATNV

[7] = DRUGMATRIX: Phosphodiesterase PDE4 enzyme inhibition (substrate: [3H]cAMP + cAMP); details: u-937; Not Active = under 50% inhibition at 10 µM
[8] = target: Platelet-activating factor receptor (Homo sapiens, UniProt P25105); assay: biochemical; assay type: tissue-based; details: platelet; further: in other assays of this panel Not Active means under 50% inhibition at 10 µM
Sequence of Platelet-activating factor receptor (P25105 whole entry): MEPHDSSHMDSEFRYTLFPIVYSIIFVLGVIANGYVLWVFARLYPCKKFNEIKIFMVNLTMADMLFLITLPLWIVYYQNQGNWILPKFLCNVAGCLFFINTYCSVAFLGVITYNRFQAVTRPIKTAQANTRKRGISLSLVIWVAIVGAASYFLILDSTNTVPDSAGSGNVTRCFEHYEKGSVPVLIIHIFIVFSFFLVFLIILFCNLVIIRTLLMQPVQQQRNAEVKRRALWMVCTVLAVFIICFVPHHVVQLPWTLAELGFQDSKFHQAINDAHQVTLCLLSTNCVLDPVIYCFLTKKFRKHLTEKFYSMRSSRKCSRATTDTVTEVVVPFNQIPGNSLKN

[9] = target: T3, Progesterone receptor (Bos taurus, UniProt Q690N0); assay: DRUGMATRIX: Progesterone radioligand binding (ligand: [3H] R-5020); assay type: tissue-based, Uterus; details: Not Active = under 50% inhibition at 10 µM
T3 sequence (Q690N0 whole entry): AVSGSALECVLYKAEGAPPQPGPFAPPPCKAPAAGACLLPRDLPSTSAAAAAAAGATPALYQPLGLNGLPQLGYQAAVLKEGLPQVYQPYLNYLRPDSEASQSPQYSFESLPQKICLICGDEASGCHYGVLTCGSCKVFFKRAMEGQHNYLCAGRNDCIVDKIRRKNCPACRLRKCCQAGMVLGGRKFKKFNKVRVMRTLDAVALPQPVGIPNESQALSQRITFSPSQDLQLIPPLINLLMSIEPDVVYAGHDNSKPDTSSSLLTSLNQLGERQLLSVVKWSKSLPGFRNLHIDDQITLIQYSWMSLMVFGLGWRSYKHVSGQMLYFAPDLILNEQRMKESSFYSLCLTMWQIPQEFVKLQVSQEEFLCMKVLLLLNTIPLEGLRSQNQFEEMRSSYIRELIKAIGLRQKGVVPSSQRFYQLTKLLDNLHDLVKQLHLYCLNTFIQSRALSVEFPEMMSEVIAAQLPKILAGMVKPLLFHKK

[10] = target: Protein phosphatase 3 catalytic subunit alpha (Homo sapiens, UniProt Q08209); parameters: species or system Escherichia coli
[11] = target: Acetylcholinesterase (Homo sapiens, UniProt P22303); assay: DRUGMATRIX: Acetylcholinesterase enzyme inhibition (substrate: acetylthiocholine); assay type: cell-based, HEK293; details: hek293; Not Active = under 50% inhibition at 10 µM
Sequence of Acetylcholinesterase (P22303 whole entry): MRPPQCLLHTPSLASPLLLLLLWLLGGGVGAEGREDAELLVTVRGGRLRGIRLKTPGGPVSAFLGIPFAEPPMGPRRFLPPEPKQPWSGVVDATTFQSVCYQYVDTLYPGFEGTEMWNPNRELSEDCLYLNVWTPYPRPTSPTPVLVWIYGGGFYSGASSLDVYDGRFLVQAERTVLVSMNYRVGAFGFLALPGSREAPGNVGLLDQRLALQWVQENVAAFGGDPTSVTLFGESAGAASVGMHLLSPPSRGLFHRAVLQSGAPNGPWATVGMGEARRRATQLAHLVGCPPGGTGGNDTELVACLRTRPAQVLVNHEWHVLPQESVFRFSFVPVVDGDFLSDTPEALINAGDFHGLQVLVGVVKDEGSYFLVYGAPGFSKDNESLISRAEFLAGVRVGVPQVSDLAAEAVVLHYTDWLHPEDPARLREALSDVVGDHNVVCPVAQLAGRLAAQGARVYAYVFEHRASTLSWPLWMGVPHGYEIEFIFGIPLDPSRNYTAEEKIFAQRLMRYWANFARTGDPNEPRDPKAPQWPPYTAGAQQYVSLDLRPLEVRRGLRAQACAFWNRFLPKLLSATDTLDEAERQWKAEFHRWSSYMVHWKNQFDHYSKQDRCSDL

[12] = target: Adenosine receptor A2a (Homo sapiens, UniProt P29274); assay: DRUGMATRIX: Adenosine A2A radioligand binding (ligand: […]); assay type: cell membranes, HEK293, Membrane; details: hek293; Not Active = under 50% inhibition at 10 µM
Sequence of Adenosine receptor A2a (P29274 whole entry): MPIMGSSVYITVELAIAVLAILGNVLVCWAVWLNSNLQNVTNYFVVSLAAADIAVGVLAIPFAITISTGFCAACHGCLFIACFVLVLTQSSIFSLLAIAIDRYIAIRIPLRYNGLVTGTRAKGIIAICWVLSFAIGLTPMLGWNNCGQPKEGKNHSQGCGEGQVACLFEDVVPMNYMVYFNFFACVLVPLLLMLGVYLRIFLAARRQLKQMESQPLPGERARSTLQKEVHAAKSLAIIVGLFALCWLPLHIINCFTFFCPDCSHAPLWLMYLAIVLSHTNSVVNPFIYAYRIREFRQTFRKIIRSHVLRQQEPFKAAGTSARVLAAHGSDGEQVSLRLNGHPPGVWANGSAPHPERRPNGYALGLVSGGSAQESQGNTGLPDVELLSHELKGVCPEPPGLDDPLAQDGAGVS

Sequence of 5-hydroxytryptamine receptor 2B (P41595 whole entry): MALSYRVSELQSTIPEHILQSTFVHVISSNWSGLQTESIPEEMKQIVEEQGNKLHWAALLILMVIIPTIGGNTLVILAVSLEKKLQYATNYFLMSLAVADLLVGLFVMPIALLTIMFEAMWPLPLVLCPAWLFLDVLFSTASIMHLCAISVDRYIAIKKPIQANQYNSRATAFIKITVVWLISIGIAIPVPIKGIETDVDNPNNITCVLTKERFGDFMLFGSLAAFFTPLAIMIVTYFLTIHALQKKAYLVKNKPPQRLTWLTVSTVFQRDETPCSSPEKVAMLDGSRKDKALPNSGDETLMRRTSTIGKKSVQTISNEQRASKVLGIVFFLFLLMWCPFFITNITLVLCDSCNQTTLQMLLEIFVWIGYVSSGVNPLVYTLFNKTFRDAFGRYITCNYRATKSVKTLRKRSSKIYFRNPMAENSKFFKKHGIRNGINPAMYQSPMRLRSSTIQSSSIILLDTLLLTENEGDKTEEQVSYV

| Compound | IC50 ([1]; cho-k1) | IC50 ([2]; jurkat) | IC50 [3] | IC50 [4] | IC50 [5] | Ki [5] | IC50 [6] | IC50 [7] | Ki [7] | IC50 [8] | IC50 [9] | IC50 [10] | IC50 [11] | IC50 [12] | Ki ([1]; cho-k1) | Ki ([2]; jurkat) | Ki [4] | Ki [6] | Ki [8] | Ki [9] | also measured |
| --- | --- | --- | --- | --- | --- | --- | --- | --- | --- | --- | --- | --- | --- | --- | --- | --- | --- | --- | --- | --- | --- |
| CN1C(C(=O)Nc2ccccn2)=C(O)c2ccccc2S1(=O)=O [PIROXICAM] | Not Active | Not Active | Not Active | Not Active | Not Active | Not Active | Not Active | Not Active | Not Active | Not Active | Not Active | Not Active | Not Active | Not Active |  |  |  |  |  |  |  |
| CCC1(c2ccccc2)C(=O)NCNC1=O [PRIMIDONE] | Not Active | Not Active | Not Active | Not Active | Not Active | Not Active | Not Active | Not Active | Not Active | Not Active | Not Active | Not Active | Not Active | Not Active |  |  |  |  |  |  |  |
| CCCc1cc(=O)[nH]c(=S)[nH]1 [PROPYLTHIOURACIL] | Not Active | Not Active | Not Active | Not Active | Not Active | Not Active | Not Active | Not Active | Not Active | Not Active | Not Active | Not Active | Not Active | Not Active |  |  |  |  |  |  |  |
| COc1ccc(CN(CCN(C)C)c2ccccn2)cc1 [PYRILAMINE] |  |  | Not Active | Not Active |  |  | Not Active | Not Active | Not Active | Not Active | Not Active | Not Active | Not Active | Not Active |  |  |  |  |  |  | IC50 ([1]; read-out: IC50): 2.79 µM; Ki ([1]; read-out: Ki): 1.77 µM; IC50 ([2]; read-out: IC50): 1.56 µM; Ki ([2]; read-out: Ki): 0.655 µM; IC50 ([5]; read-out: IC50): 3.34 µM; Ki ([5]; read-out: Ki): 2.23 µM |
| CARBOPLATIN | Not Active | Not Active | Not Active | Not Active | Not Active | Not Active | Not Active | Not Active | Not Active | Not Active | Not Active | Not Active | Not Active | Not Active | Not Active | Not Active | Not Active | Not Active | Not Active | Not Active | Ki [3]: Not Active; Ki [10]: Not Active; Ki [11]: Not Active; Ki [12]: Not Active |
| CISPLATIN | Not Active | Not Active |  | Not Active | Not Active | Not Active | Not Active | Not Active | Not Active | Not Active | Not Active | Not Active | Not Active | Not Active | Not Active | Not Active | Not Active | Not Active | Not Active | Not Active | IC50 ([3]; read-out: IC50): 18.1 µM; Ki ([3]; read-out: Ki): 7.01 µM; Ki [10]: Not Active; Ki [11]: Not Active; Ki [12]: Not Active |
| GOLD SODIUM THIOMALATE | Not Active | Not Active | Not Active | Not Active | Not Active | Not Active | Not Active | Not Active | Not Active | Not Active | Not Active | Not Active | Not Active | Not Active | Not Active | Not Active | Not Active | Not Active | Not Active | Not Active | Ki [3]: Not Active; Ki [10]: Not Active; Ki [11]: Not Active; Ki [12]: Not Active |
| OXALIPLATIN | Not Active | Not Active | Not Active | Not Active | Not Active | Not Active | Not Active | Not Active | Not Active | Not Active | Not Active | Not Active | Not Active | Not Active | Not Active | Not Active | Not Active | Not Active | Not Active | Not Active | Ki [3]: Not Active; Ki [10]: Not Active; Ki [11]: Not Active; Ki [12]: Not Active |
